Test results: paper PMC9352230 (ACS Omega, 2022)
Entries after “also recorded” stand apart in the source; their conditions may differ. Where two headings read alike, the source gives them in different places.

Tests used:
ENPP1 [1] = details: read-out: ENPP1 IC50, cited from earlier work
[2] = system: MCF7 (human breast cancer cell line); assay: MTT cytotoxicity assay, MCF7; assay type: cell-based; details: MCF7, 24 h, read-out: MCF7 (% inhibition ±SD)
ENPP1 [3] = molecular target: T1, ENPP1 (Homo sapiens, UniProt P22413); assay: ENPP1 enzyme inhibition assay; assay type: biochemical
T1 sequence (P22413 1-925): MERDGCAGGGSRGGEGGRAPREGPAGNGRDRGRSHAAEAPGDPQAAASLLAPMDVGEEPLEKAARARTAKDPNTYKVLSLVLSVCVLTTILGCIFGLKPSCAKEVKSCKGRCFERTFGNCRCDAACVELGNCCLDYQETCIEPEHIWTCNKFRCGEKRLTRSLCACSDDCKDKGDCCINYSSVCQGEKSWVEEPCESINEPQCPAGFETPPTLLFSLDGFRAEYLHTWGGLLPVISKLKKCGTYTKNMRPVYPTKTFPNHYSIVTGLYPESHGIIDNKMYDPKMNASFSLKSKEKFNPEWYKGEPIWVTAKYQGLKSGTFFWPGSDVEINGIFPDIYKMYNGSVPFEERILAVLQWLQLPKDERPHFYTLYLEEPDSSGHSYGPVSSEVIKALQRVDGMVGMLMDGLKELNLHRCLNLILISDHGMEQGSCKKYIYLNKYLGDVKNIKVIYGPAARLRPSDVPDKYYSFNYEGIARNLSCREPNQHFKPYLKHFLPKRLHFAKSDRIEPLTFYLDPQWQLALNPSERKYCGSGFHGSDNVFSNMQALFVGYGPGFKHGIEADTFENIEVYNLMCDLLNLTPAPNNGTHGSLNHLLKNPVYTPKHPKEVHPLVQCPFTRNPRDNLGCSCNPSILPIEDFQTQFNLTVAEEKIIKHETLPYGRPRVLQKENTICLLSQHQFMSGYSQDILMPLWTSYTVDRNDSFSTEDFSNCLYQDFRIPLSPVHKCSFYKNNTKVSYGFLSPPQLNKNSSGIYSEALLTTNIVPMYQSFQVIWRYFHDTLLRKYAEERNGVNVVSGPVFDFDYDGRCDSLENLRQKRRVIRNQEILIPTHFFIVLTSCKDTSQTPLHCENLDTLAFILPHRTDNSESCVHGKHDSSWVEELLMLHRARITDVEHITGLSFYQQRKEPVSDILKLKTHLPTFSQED

[4] = system: HEK293 (human embryonic kidney cell line); assay: MTT cytotoxicity assay, HEK293; assay type: cell-based; details: for inhibition at 100 µM: Homo sapiens, HEK293, 24 h, read-out: HEK293 (% inhibition ±SD)
ENPP3 [5] = molecular target: T2, ENPP3 (Homo sapiens, UniProt O14638); assay: ENPP3 enzyme inhibition assay; assay type: biochemical
T2 sequence (O14638 1-875): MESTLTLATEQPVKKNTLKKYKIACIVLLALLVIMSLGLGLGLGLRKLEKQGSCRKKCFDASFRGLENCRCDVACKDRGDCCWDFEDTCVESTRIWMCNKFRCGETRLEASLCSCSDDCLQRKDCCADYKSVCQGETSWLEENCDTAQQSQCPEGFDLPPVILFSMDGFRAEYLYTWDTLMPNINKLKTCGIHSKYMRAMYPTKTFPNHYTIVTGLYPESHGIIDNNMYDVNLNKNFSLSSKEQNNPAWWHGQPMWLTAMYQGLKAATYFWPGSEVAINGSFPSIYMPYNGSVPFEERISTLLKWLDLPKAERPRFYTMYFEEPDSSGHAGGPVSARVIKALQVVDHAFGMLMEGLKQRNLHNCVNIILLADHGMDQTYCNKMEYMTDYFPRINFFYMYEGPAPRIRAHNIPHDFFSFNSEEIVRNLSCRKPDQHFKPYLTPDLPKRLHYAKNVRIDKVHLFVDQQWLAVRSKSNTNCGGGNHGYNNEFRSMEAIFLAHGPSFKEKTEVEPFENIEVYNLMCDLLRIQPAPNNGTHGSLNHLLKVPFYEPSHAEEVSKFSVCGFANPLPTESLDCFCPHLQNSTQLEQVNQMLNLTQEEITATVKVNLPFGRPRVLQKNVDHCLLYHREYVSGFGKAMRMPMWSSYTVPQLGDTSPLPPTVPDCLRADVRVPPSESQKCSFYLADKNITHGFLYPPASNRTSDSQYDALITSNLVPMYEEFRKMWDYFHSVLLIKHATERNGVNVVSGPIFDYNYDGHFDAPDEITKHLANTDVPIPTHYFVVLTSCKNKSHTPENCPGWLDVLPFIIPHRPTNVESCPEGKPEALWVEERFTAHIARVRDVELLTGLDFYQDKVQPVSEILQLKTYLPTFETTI

ENPP1 [6] = molecular target: T1, ENPP1; assay: Enzyme kinetic study, Lineweaver-Burk plots, ENPP1; assay type: biochemical; details: triplicates
ENPP3 [7] = molecular target: T2, ENPP3; assay: Enzyme kinetic study, Lineweaver-Burk plots, ENPP3; assay type: biochemical; details: triplicates
[8] = system: HeLa (human cervical cancer cell line); assay: MTT cytotoxicity assay, HeLa; assay type: cell-based; details: 100 μM compound, 24 h treatment, triplicate

In the case of `Cc1ccc(S(=O)(=O)Oc2ccc(-c3sc4cc(OS(=O)(=O)c5ccc(C)cc5)ccc4c3C(=O)c3ccc(OCCN4CCCCC4)cc3)cc2)cc1` [3-(4-(2-(piperidin-1-yl)ethoxy)benzoyl)-2-(4-(tosyloxy)phenyl)benzo[b]thiophen-6-yl-4-methylbenzenesulfonate], the IC50 (ENPP1 [1]; selective inhibition of ENPP1) is listed as 450 nM.
For `CCCCc1ccc(S(=O)(=O)Oc2ccc(NC(=O)c3ccc(C)cc3)cc2)cc1` [4j, 4-(4-Methylbenzamido)phenyl 4-Butylbenzenesulfonate], the inhibition at 100 µM [2] was 13.3 ± 0.73%, the IC50 (ENPP1 [3]) was 230 ± 30 nM and the inhibition at 100 µM [4] was 27.6 ± 2.55%. For the same compound, the inhibition at 100 µM (ENPP3 [5]; read-out: ENPP3 % inhibition ± SD) was 42.1 ± 3.43% and the “mode of inhibition of ENPP1” value (ENPP1 [6]) was “uncompetitive; also recorded: uncompetitively”.
Compound `Cc1ccc(S(=O)(=O)Oc2ccc(NC(=O)C3(C)c4ccccc4-c4ccccc43)cc2)cc1` [7e, 4-(9-Methyl-9H-fluorene-9-carboxamido)phenyl 4-Methylbenzenesulfonate] has an inhibition at 100 µM [2] of 0.3 ± 0.15%, an IC50 (ENPP1 [3]) of 18900 ± 540 nM and an inhibition at 100 µM [4] of 12.4 ± 1.42%. For the same compound, the “mode of inhibition of ENPP3” value (ENPP3 [7]) was “competitively” and the IC50 (ENPP3 [5]) was 380 ± 130 nM.
In the case of `O=C(NS(=O)(=O)c1ccccc1)n1ccc2cccnc21` [N-(pyrrolo[2,3-b]pyridine-1-carbonyl)benzenesulfonamide], the IC50 (ENPP1 [1]; selective inhibitor of ENPP1) is given as 4500 ± 160 nM.
In the case of `N.N.[Cl][Pt][Cl]` [cisplatin, reference compound], the “HeLa cell line (% inhibition ±SD)” value [8] is reported as 84.3 ± 2.72% and the “HEK293 (% inhibition ±SD)” value ([4]; 100 μM compound, MTT, 24 h treatment, triplicate, normal cell line) is reported as 65.5 ± 1.48%.
